One compound from patent US20240279191A1, “SMALL MOLECULE INHIBITORS OF TEAD-YAP” (The General Hospital Corporation, priority 2021, published 2024) can be followed below.

For series [1], the system named is Mouse hepatic progenitor organoids. Put plainly: Immunofluorescence staining of Ki67 in organoids. The class given is cell-based. As to conditions: 40 nM, 3D culture. The protocol: Organoids were plated in 8 well chamber slide and fixed in 4% paraformaldehyde at 4° C. for 1h. After permeabilization in 0.5% PBST, organoids were blocked with 2% BSA for 2 h and incubated with primary antibody overnight at […]. Imaging was performed on Nikon A1RHD25 confocal microscope.

Series [2] deals with TEAD2 (Homo sapiens, UniProt Q15562). Put plainly: Inhibition of TEAD2 auto-palmitoylation in vitro. The settings on record: FIG. 1; 0.05 and 0.5 μM for 30 mins.
The subject of series [3] is DLD1 cells. As to the kind of experiment: Cell proliferation assay (MTT), DLD1. The settings on record: CRC cell line, FIG. 8D.
Series [4] concerns HCT116 cells. As to the kind of experiment: Cell proliferation assay (MTT), HCT116. As to conditions: CRC cell line, FIG. 8D.
Series [5] relates to TEAD-YAP target genes (CTGF, Cyr61, ANKRD1). As to the kind of experiment: Quantitative RT-PCR of TEAD-YAP target genes in H226 cells. The series is classed as cell-based, Human. As to the method:
[…] The high-capacity cDNA reverse transcription kit (4368814, Life Technologies) was employed to obtain cDNA. Target genes expression (Cyr61, CTGF and ANKRD1) was measured with PowerUp SYB Green Master Mix kit (A25777, Life Technologies). β-actin was used as reference gene. The primers are shown below:

Series [6] relates to YAP/TAZ-TEAD direct target genes. As to the kind of experiment: RNA-seq analysis in H226 cells. The class given is cell-based, Human. The settings on record: 1 μM TM2, versus K975 in H226 xenograft tumors (GSE156912), FIG. 7. The protocol: The NCI-H226 cells were treated with TM2 at 1 μM for 24 hours. Total RNA was isolated with RNeasy Mini Kit (74104, Qiagen). The integrity of isolated RNA was analyzed using Bioanalyzer (Agilent Technologies). and the RNA-seq libraries were made by Novogene. All libraries have at least 50 million reads sequenced (150 bp paired-end). The heatmaps were generated using different expressed genes from TM2 treatment in NCI-H226 cells with Motpheus (https://software.broadinstitute.org/morpheus/). Principle component analysis (PCA) was determined by PCA function in M3C package in R. Gene Set Enrichment Analysis (GSEA) was performed using GSEA software from Broad Institute (http://software.broadinstitute.org/gsea/index.jsp). The YAP_TAZ-TEAD Direct Target Genes set were generated with the published YAP/TAZ-TEAD target genes (Zanconato et al., 2015).

Series [7] has as its system PDL1 expression. As to the kind of experiment: PDL1 expression in cancer cell lines. The series is classed as cell-based.
The nature of series [8]: Aqueous solubility (Aq Sol). The class given is physicochemical.
Series [9] relates to endogenous TEAD1-4 (pan-TEAD). As to the kind of experiment: Inhibition of endogenous pan-TEAD palmitoylation in HEK293A cells. The series is classed as cell-based. As to the method: HEK293A cells with or without TEAD overexpression were pretreated with DMSO or TM2 in medium with 10% dialyzed fetal bovine serum (DFBS) for 8 h and labeled by Alkynyl Palmitic acid (1165, Click Chemistry Tools) for another 16 h. The cells were then washed and harvested by cold DPBS (14190250, Life Technologies). The cell pellets were isolated by centrifugation (500×g, 10 min) and lysed by TEA lysis buffer (50 mM TEA-HCl, pH 7.4, 150 mM NaCl, 1% Triton X-100, 0.2% SDS, 1×Protease inhibitor-EDTA free cocktail (05892791001, Roche), phosphatase inhibitor cocktail (P0044, Sigma-Aldrich)) on ice for 30 mins. The protein concentration was determined using Bio-Rad assay and adjusted to 1 mg/mL. 100 μL of protein sample mixture was treated with 10 μL of freshly prepared “click” mixture containing 1 mM TBTA, 10 mM TCEP, 10 mM CuSO4, 1 mM TBTA Biotin-Azide and incubated for 1 h at room temperature. The proteins were precipitated by chloroform/methanol/H20 mixture and redissolved with 2% SDS in 0.1% PBST. The solution was diluted with 0.1% PBST and incubated with prewashed streptavidin agarose beads (69203-3, E M D MILLIPORE). After rotation at room temperature for 2 h, the beads were then pelleted by centrifugation (500×g, 3 min) and washed with 0.2% SDS in PBS (3×1 mL). The bound proteins were eluted with a buffer containing 10 mM EDTA pH 8.2 and 95% formamide and analyzed with SDS-PAGE. […]

Sequence of TEAD2 (Q15562 whole entry): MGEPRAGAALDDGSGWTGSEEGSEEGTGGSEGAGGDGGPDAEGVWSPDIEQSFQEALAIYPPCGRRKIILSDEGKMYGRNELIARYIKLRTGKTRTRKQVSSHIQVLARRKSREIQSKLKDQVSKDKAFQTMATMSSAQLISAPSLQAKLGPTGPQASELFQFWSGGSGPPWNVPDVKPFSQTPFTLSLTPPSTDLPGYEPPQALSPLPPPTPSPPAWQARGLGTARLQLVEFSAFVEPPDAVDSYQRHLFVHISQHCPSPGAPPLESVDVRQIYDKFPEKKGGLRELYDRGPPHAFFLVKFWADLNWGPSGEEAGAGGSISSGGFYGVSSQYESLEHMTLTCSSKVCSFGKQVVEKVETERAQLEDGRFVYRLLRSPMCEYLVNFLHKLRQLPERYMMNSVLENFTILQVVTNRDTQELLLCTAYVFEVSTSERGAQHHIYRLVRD

In the case of `O=C(Nc1ccccc1)N1CCN(C(=O)c2cccc(OCCC3CCCCC3)c2)CC1` [TM2, 4-(3-(2-cyclohexylethoxy)benzoyl)-N-phenylpiperazine-1-carboxamide], the “Ki67 positive cells in organoids (in words)” value in series [1] is “significantly diminished”. The “inhibition of TEAD2 auto-palmitoylation (in words)” value in series [2] is reported as “most potent compound”. The “inhibition of DLD1 cell proliferation (in words)” value in series [3] is given as “did not exhibit strong inhibition”. In addition, the “inhibition of HCT116 cell proliferation (in words)” value in series [4] was “did not exhibit strong inhibition”. For the same compound, in series [5] (H226, 24 and 48 h), the “expression level of CTGF and ANKDR1 (in words)” value was “significantly suppressed”. For the same compound, the “expression of Cyr61 (in words)” value in series [5] (H226, 48 h) is “strong response”. For the same compound, the “block of YAP/TAZ-TEAD direct target genes (in words)” value in series [6] was “more efficient to block YAP/TAZ-TEAD target genes relative to K975”. Moreover, the “PDL1 expression in cancer cell lines (in words)” value in series [7] is “inhibits PDL1 expression”. Also, the “Aq Sol” value in series [8] was 2.3 µM. For the same compound, the “Pan-TEAD palmitoylation at 100 nM (in words)” value in series [9] (100 nM) is on record as “diminished”. Besides, the “endogenous TEAD1-4 (pan-TEAD) palmitoylation (in words)” value in [9] (HEK293A, 24 h, FIG. 2D) was “significantly inhibits”.
